Reference: patent publication US10688088B2 (priority 2015, dated 2020)

Test system: M. tuberculosis H37 Rv (ATCC 27294)
Experiment: MIC determination in medium 7H9 by Alamar Blue (MABA) method and FIC synergism, standard strain H37Rv
Assay type: cell-based, Mycobacterium tuberculosis

C[C@@H]1CN(c2c(F)c(N)c3c(=O)c(C(=O)O)cn(C4CC4)c3c2F)C[C@H](C)N1 [SPR, sparfloxacin]
MIC 1: MIC of the substance tested alone: 0.12
MIC 2: MIC of the substance tested in combination (combination MFL + SPR): 0.12

O=C(O)c1cn(C2CC2)c2cc(N3CCNCC3)c(F)cc2c1=O [CPX, ciprofloxacin]
MIC 1: MIC of the substance tested alone: 0.62
MIC 2: MIC of the substance tested in combination (combination MEF + CPX): 0.62

NC(=O)c1cnccn1 [PYR, pyrazinamide]
MIC 1: MIC of the substance tested alone: 100
MIC 2: MIC of the substance tested in combination (combination MFL + PYR): 3.12

C[C@H]1COc2c(N3CCN(C)CC3)c(F)cc3c(=O)c(C(=O)O)cn1c23 [LVX, levofloxacin]
MIC 1: MIC of the substance tested alone: 0.62
MIC 2: MIC of the substance tested in combination (combination MEF + LVX): 0.62

CC1COc2c(N3CCN(C)CC3)c(F)cc3c(=O)c(C(=O)O)cn1c23 (centres unmarked) [OFX, ofloxacin]
MIC 1: MIC of the substance tested alone: 1.25
MIC 2: MIC of the substance tested in combination (combination MFL + OFX): 0.62

NNC(=O)c1ccncc1 [INH, isoniazid]
MIC 1: MIC of the substance tested alone: 0.20
MIC 2: MIC of the substance tested in combination (combination MFL + INH): 0.10

COc1c(N2CCNC(C)C2)c(F)cc2c(=O)c(C(=O)O)cn(C3CC3)c12 (centres unmarked) [GAT, gatifloxacin]
MIC 1: MIC of the substance tested alone: 0.12
MIC 2: MIC of the substance tested in combination (combination MFL + GAT): 0.12

CC(=O)NC[C@H]1CN(c2ccc(N3CCOCC3)c(F)c2)C(=O)O1 [LYN, linezolid]
MIC 1: MIC of the substance tested alone: 0.62
MIC 2: MIC of the substance tested in combination (combination MFL + LYN): 0.62

CC[C@@H](CO)NCCN[C@@H](CC)CO [ETB, ethambutol]
MIC 1: MIC of the substance tested alone: 1.25
MIC 2: MIC of the substance tested in combination (combination MFL + ETB): 1.25

COc1c(N2C[C@@H]3CCCN[C@@H]3C2)c(F)cc2c(=O)c(C(=O)O)cn(C3CC3)c12 [MOX, moxifloxacin]
MIC 1: MIC of the substance tested alone: 0.25
MIC 2: MIC of the substance tested in combination (combination MFL + MOX): 0.15

OC(c1cc(C(F)(F)F)nc2c(C(F)(F)F)cccc12)C1CCCCN1 (centres unmarked) [Mefloquine, mefloquine]
MIC 2: MIC of the substance tested in combination (combination MEF + CPX): 0.62
MIC 2: MIC of the substance tested in combination (combination MEF + LVX): 0.62
MIC 2: MIC of the substance tested in combination (combination MFL + GAT): 0.12
MIC 2: MIC of the substance tested in combination (combination MFL + INH): 0.10
MIC 2: MIC of the substance tested in combination (combination MFL + LYN): 0.62
MIC 2: MIC of the substance tested in combination (combination MFL + MOX): 0.15
MIC 2: MIC of the substance tested in combination (combination MFL + OFX): 0.62
MIC 2: MIC of the substance tested in combination (combination MFL + PYR): 3.12
MIC 2: MIC of the substance tested in combination (combination MFL + SPR): 0.12
